# Source: PubChem BioAssay (NCI)
#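 Interpolation was linear, between the two tested concentrations surrounding the appropriate level; five concentrations were tested over 48 hours in 96-well plates. At the GI50, growth is halved. TGI is the concentration that stops growth completely.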
# How the values were obtained:
# Experiment in all cases: NCI anticancer screen, dose series, 48 h
# [1] = test system: KM12 colon
# [2] = test system: HCT-116 colon
# [3] = test system: MALME-3M melanoma
# [4] = test system: NCI-H226 lung
# [5] = test system: SK-OV-3 ovarian
# [6] = test system: SK-MEL-28 melanoma
# [7] = test system: M14 melanoma
# [8] = test system: HOP-92 NSCLC
# [9] = test system: SN12C renal
# [10] = test system: T-47D breast
structure (smiles),measurement,setting,value
Cc1ccc(S(=O)(=O)c2ccccn2)cc1,TGI,[1],> 100 µM
same,TGI,[2],> 100 µM
same,TGI,[3],> 100 µM
same,TGI,[4],> 100 µM
same,TGI,[5],> 100 µM
same,TGI,[6],> 100 µM
same,TGI,[7],> 100 µM
same,TGI,[8],> 100 µM
same,TGI,[9],> 100 µM
CC1CCCC2(O1)OC1CC(=O)OC1C1=C2C(=O)c2ccccc2C1=O (configuration not stated),TGI,[1],31.7 µM
same,TGI,[3],4.43 µM
same,TGI,[4],4.51 µM
same,TGI,[5],30 µM
same,TGI,[6],4.75 µM
same,TGI,[7],7.89 µM
same,TGI,[9],4.77 µM
C[N+](C)(C)CC(=O)N/N=C(\C(=O)Nc1ccc(Cl)cc1)C1C(=O)N(c2ccccc2)N=C1N (configuration not stated),TGI,[1],> 100 µM
same,TGI,[2],> 100 µM
same,TGI,[3],> 100 µM
same,TGI,[5],> 100 µM
same,TGI,[6],> 100 µM
same,TGI,[7],> 100 µM
same,TGI,[8],> 100 µM
same,TGI,[9],> 100 µM
Nc1nc(N)c2nn(-c3ccc(C(=O)O)cc3)nc2n1,TGI,[1],> 100 µM
same,TGI,[2],> 100 µM
same,TGI,[4],> 100 µM
same,TGI,[5],> 100 µM
same,TGI,[6],> 100 µM
same,TGI,[7],> 100 µM
same,TGI,[8],> 100 µM
same,TGI,[9],> 100 µM
same,TGI,[10],> 100 µM
Cc1nc2c(=O)n(C)c(=O)nc-2n(-c2ccc(Cl)cc2)c1C,TGI,[1],> 100 µM
same,TGI,[3],> 100 µM
same,TGI,[4],> 100 µM
same,TGI,[5],> 100 µM
same,TGI,[6],> 100 µM
same,TGI,[7],> 100 µM
same,TGI,[8],> 100 µM
same,TGI,[9],> 100 µM
Cc1ccc(CCNC(=S)SCC(NC(=O)CCC(N)C(=O)O)C(=O)NCC(=O)O)cc1 (configuration not stated),TGI,[1],2.68 µM
same,TGI,[2],6.26 µM
same,TGI,[3],4.47 µM
same,TGI,[4],4.47 µM
same,TGI,[5],19.2 µM
same,TGI,[6],7.63 µM
same,TGI,[7],2.56 µM
same,TGI,[8],2.8 µM
same,TGI,[9],3.84 µM
COc1ccc(/C=C(\NC(=O)c2ccccc2)c2nc3ccccc3[nH]2)cc1,TGI,[1],> 100 µM
same,TGI,[2],> 100 µM
same,TGI,[3],> 100 µM
same,TGI,[4],> 100 µM
same,TGI,[5],96.5 µM
same,TGI,[6],37.5 µM
same,TGI,[7],> 100 µM
same,TGI,[8],> 100 µM
same,TGI,[9],> 100 µM
COc1cc(C2C(C(=O)Nc3ccc(Cl)c(Cl)c3)=C(C)NC(C)=C2C(=O)Nc2ccc(Cl)c(Cl)c2)ccc1O,TGI,[1],27 µM
same,TGI,[3],27.3 µM
same,TGI,[4],40.8 µM
same,TGI,[5],34.5 µM
same,TGI,[6],27.3 µM
same,TGI,[7],26.9 µM
same,TGI,[8],11.1 µM
same,TGI,[9],30.9 µM
O=C1c2ccccc2CC1C1(O)C(=O)Nc2c(Cl)cc(Cl)cc21 (configuration not stated),TGI,[1],> 100 µM
same,TGI,[3],> 100 µM
same,TGI,[4],> 100 µM
same,TGI,[5],> 100 µM
same,TGI,[6],> 100 µM
same,TGI,[7],> 100 µM
same,TGI,[8],> 100 µM
same,TGI,[9],> 100 µM
COc1ccc(N2CCN(CC(=O)N3CCN(c4nnc(-c5ccc(Cl)cc5)c(-c5ccc(Cl)cc5)n4)CC3)CC2)cc1,GI50,[1],4.86 µM
same,TGI,[1],> 100 µM
same,GI50,[2],3.96 µM
same,TGI,[2],> 100 µM
same,GI50,[4],> 100 µM
same,TGI,[4],> 100 µM
same,GI50,[5],> 100 µM
same,TGI,[5],> 100 µM
same,GI50,[6],96.8 µM
same,TGI,[6],> 100 µM
same,GI50,[7],12.7 µM
same,TGI,[7],> 100 µM
same,GI50,[8],11.1 µM
same,TGI,[8],30.5 µM
same,GI50,[9],24.8 µM
same,TGI,[9],> 100 µM
same,GI50,[10],3.64 µM
same,TGI,[10],> 100 µM
CC(C)(O)C1CC(=O)C(C)(C2C(O)CC3(C)C4CC=C5C(CCC(O)C5(C)C)C4(C)C(=O)CC23C)O1 (configuration not stated),TGI,[1],> 100 µM
same,TGI,[2],> 100 µM
same,TGI,[4],> 100 µM
same,TGI,[5],> 100 µM
same,TGI,[6],> 100 µM
same,TGI,[7],> 100 µM
same,TGI,[8],> 100 µM
same,TGI,[9],> 100 µM
same,TGI,[10],> 100 µM
N#Cc1c(-c2ccc(Cl)cc2)n([O-])c2ccccc2[n+]1=O,GI50,[1],14.3 µM
same,TGI,[1],28.7 µM
same,GI50,[2],3.03 µM
same,TGI,[2],11.1 µM
same,GI50,[4],18.1 µM
same,TGI,[4],46.7 µM
same,GI50,[5],24.8 µM
same,TGI,[5],72.3 µM
same,GI50,[6],44.8 µM
same,TGI,[6],> 100 µM
same,GI50,[8],1.61 µM
same,TGI,[8],3.24 µM
same,GI50,[9],15.5 µM
same,TGI,[9],37.2 µM
same,GI50,[10],6.47 µM
same,TGI,[10],25.8 µM
CCOc1ccccc1Nc1nc(C)c(C(=O)CC(=O)C(=O)Nc2ccccc2)s1,TGI,[1],> 100 µM
same,TGI,[2],> 100 µM
same,TGI,[3],> 100 µM
same,TGI,[4],> 100 µM
same,TGI,[5],> 100 µM
same,TGI,[6],> 100 µM
same,TGI,[7],> 100 µM
same,TGI,[8],> 100 µM
same,TGI,[9],> 100 µM
O=C(CN1C(=O)c2ccccc2C1=O)NC1(C(=O)O)CCCC1,TGI,[1],> 100 µM
same,TGI,[2],> 100 µM
same,TGI,[3],> 100 µM
same,TGI,[4],> 100 µM
same,TGI,[5],> 100 µM
same,TGI,[6],> 100 µM
same,TGI,[7],> 100 µM
same,TGI,[9],> 100 µM
same,TGI,[10],> 100 µM
Cn1c(N)cc(=O)nc1N,TGI,[1],> 100 µM
same,TGI,[2],> 100 µM
same,TGI,[3],> 100 µM
same,TGI,[4],> 100 µM
same,TGI,[5],> 100 µM
same,TGI,[6],> 100 µM
same,TGI,[7],> 100 µM
same,TGI,[9],> 100 µM
same,TGI,[10],> 100 µM
COc1ccc2nccc(C3OC(=O)N4CCC(=O)CC34)c2c1 (configuration not stated),TGI,[1],> 100 µM
same,TGI,[2],> 100 µM
same,TGI,[4],> 100 µM
same,TGI,[6],> 100 µM
same,TGI,[7],> 100 µM
same,TGI,[8],> 100 µM
same,TGI,[9],> 100 µM
Cc1cn2cc(-c3ccncc3)nc2s1,TGI,[1],> 100 µM
same,TGI,[2],> 100 µM
same,TGI,[3],> 100 µM
same,TGI,[4],> 100 µM
same,TGI,[5],> 100 µM
same,TGI,[6],> 100 µM
same,TGI,[7],> 100 µM
same,TGI,[8],> 100 µM
same,TGI,[9],> 100 µM
O=C(N/N=C/c1cc(-c2ccccc2Cl)c(-c2ccccc2Cl)o1)c1ccncc1,TGI,[2],> 100 µM
same,TGI,[3],> 100 µM
same,TGI,[4],> 100 µM
same,TGI,[5],> 100 µM
same,TGI,[6],> 100 µM
same,TGI,[7],> 100 µM
same,TGI,[8],> 100 µM
same,TGI,[9],> 100 µM
CC(=O)OC12CCCCC1C1(CCCC1)NC2=O (configuration not stated),TGI,[1],> 100 µM
same,TGI,[2],> 100 µM
same,TGI,[3],> 100 µM
same,TGI,[4],> 100 µM
same,TGI,[5],> 100 µM
same,TGI,[6],> 100 µM
same,TGI,[7],> 100 µM
same,TGI,[9],> 100 µM
CCCC1C2=C(C(=O)OC2=O)C2C(CC)CC3=C(C(=O)OC3=O)C12 (configuration not stated),TGI,[1],> 100 µM
same,TGI,[2],> 100 µM
same,TGI,[4],> 100 µM
same,TGI,[5],> 100 µM
same,TGI,[6],> 100 µM
same,TGI,[7],> 100 µM
same,TGI,[8],> 100 µM
same,TGI,[9],> 100 µM
same,TGI,[10],> 100 µM
COc1cc(/C=C/C(=O)C(C)(C)C)cc(OC)c1OC,TGI,[1],52.7 µM
same,TGI,[2],> 100 µM
same,TGI,[3],> 100 µM
same,TGI,[4],97.9 µM
same,TGI,[5],> 100 µM
same,TGI,[6],> 100 µM
same,TGI,[7],> 100 µM
same,TGI,[8],> 100 µM
same,TGI,[9],> 100 µM
O=C1[C@@H]2C3C=CC([C@H]4C(=O)N(CO)C(=O)[C@@H]34)[C@@H]2C(=O)N1CO,TGI,[1],> 100 µM
same,TGI,[2],> 57.4 µM
same,TGI,[3],> 100 µM
same,TGI,[4],> 100 µM
same,TGI,[5],> 100 µM
same,TGI,[6],> 100 µM
same,TGI,[7],> 75.2 µM
same,TGI,[8],> 100 µM
same,TGI,[9],> 100 µM
Cc1cccc(NC(=O)c2sc3nc4c(cc3c2N)CCC4)c1C,GI50,[1],0.407 µM
same,TGI,[1],41 µM
same,GI50,[2],0.381 µM
same,TGI,[2],11.8 µM
same,GI50,[4],2.65 µM
same,TGI,[4],36.8 µM
same,GI50,[5],0.379 µM
same,TGI,[5],18.4 µM
same,GI50,[6],0.803 µM
same,TGI,[6],39.6 µM
same,GI50,[7],0.236 µM
same,TGI,[7],2.4 µM
same,GI50,[8],0.449 µM
same,TGI,[8],19 µM
same,GI50,[9],0.888 µM
same,TGI,[9],> 100 µM
same,GI50,[10],0.351 µM
same,TGI,[10],34.7 µM
